From publication PMC6835510, “Magnificamide, a β-Defensin-Like Peptide from the Mucus of the Sea Anemone Heteractis magnifica, Is a Strong Inhibitor of Mammalian α-Amylases” (Marine Drugs, 2019)
Bridge positions count the residues as written; N and C are the ends. Ends that are not written are not given here.

Columns and labels:
[1] = molecular target: human salivary α-amylase (HSA) (Homo sapiens, UniProt P0DUB6); test: Determination of Ki against human saliva α-amylase (Morrison); format: biochemical; conditions: 37 °C, 50 mM sodium phosphate, 100 mM NaCl, pH 7.0; CNPG3 3.3 mM (KM 3.4 mM), nominal [E] 100 nM; 10 min pre-incubation; 405 nm; Morrison fit, competitive mode assumed; mean ± SE (n = 3); read-out: Ki against HSA
Procedure: For a quantitative assessment of tight-binding inhibitor potency, Morrison’s method was applied. This method uses the Morrison quadratic equation (Equation (1)) for fitting inhibitor-response data and determining Ki app as a nonlinear regression parameter. (1) υ/υo=1−([E]+[I]+Kiapp)−([E]+[I]+Kiapp)^2−4[E][I]/2[E]o
Kinetic assays were carried out at 37 °C in 50 mM sodium phosphate and 100 mM sodium chloride (pH 7.0). 2-Chloro-4-nitrophenyl-α-maltotrioside (CNPG3) (Sigma Aldrich, St. Louis, MO, USA) was used as the substrate and the optical absorption of the 2-chloro-4-nitrophenol was measured at 405 nm. Reactions were run with final [CNPG3] = 1 mM ([S]/KM = 1.41, KM = 0.71 mM), nominal [E] = 20 nM for PPA, [CNPG3] = 3.3 mM ([S]/KM = 0.97, KM = 3.4 mM), and nominal [E] = 100 nM for HSA to provide sufficient analytical signal. Inhibitor dilution schemes were optimized considering recommendations in [34].
The enzyme was pre-incubated with the inhibitor for 10 minutes before the addition of substrate which launched the reaction. Reactions were monitored on an xMark microplate spectrophotometer (BioRad, USA) in the kinetic mode for 30 min. The initial linear steady state region provided initial rate values for each inhibitor concentration (υ), along with uninhibited rate values (υo). Measurements were run in triplicate. […]

[2] = molecular target: T1, porcine pancreatic α-amylase (PPA) (Sus scrofa, UniProt P00690); test: PPA inhibitory activity of RP-HPLC fractions; format: biochemical; conditions: 10 µL sample, PPA 1 µg/mL, 50 mM sodium phosphate, 100 mM NaCl, pH 7.0, 10 min RT, CNPG3 1 mM, 405 nm
T1 construct: purchased Sigma Aldrich A4268
T1 sequence (P00690 16-511): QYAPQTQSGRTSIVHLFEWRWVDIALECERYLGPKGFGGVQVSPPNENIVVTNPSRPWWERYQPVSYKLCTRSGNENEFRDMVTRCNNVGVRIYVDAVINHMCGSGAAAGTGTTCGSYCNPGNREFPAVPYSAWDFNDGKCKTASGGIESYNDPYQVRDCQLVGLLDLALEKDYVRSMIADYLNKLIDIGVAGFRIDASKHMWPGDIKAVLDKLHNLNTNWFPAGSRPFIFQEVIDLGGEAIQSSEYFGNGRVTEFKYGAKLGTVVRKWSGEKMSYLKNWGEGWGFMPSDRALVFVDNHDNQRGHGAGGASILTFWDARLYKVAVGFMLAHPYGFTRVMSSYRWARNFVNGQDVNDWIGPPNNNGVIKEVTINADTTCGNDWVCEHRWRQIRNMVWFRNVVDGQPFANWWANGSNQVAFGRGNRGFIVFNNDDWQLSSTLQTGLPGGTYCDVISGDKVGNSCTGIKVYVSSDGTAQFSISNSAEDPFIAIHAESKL
Procedure: The porcine α-amylase (PPA) inhibitory activity of the peptide fractions obtained by RP-HPLC was tested by the following procedure. Experimental samples (10 µL) were added to 80 µL of 50 mM sodium phosphate, 100 mM sodium chloride buffer (pH 7.0), and PPA (A4268) (1 µg/mL) (Sigma Aldrich, St. Louis, MO, USA), and incubated for 10 min at RT. The substrate solution, 2-chloro-4-nitrophenyl α-D-maltotrioside (CNPG3) (Sigma Aldrich, St. Louis, MO, USA), was added to the reaction mixture (1 mM) and incubated for 10 min at RT. The optical absorption was measured on an xMark microplate spectrophotometer (BioRad, Hercules, CA, USA) at 405 nm.

Sequence of human salivary α-amylase (HSA) (P0DUB6 16-511): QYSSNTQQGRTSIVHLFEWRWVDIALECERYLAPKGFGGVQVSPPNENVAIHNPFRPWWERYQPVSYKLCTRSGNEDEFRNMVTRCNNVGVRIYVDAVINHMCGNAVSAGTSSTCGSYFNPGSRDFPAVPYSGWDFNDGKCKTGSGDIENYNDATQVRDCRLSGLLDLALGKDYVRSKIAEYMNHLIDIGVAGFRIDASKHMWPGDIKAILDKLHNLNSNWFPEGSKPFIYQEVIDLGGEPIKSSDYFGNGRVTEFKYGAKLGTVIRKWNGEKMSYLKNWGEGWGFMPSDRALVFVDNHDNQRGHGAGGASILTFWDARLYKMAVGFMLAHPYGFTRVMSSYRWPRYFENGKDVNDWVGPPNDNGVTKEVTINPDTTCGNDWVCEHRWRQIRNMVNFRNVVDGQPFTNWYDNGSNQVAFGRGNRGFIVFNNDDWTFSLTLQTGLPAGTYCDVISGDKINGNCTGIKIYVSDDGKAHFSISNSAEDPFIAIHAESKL

Sequence: SEGTSCYIYHGVYGICKAKCAEDMKAMAGMGVCEGDLCCYKTPW (disulfide 6-38, 16-33, 20-39) [r-magnificamide]
- Ki [1]: 7.7 ± 1.5 nM
- PPA inhibition by RP-HPLC fraction [2]: inhibited PPA
